What is called koff is the first-order rate constant of dissociation. A lower koff goes with slow dissociation. One may read the Kd as a measure of binding affinity in units of concentration. One may read the kon as the second-order rate constant of association. Low values mean slow association, high ones fast association. A word on the residence time: it is how long the partners stay bound on average.

Experimental findings from PMC10388362, “Fluorescent Ligands Enable Target Engagement Studies for the Intracellular Allosteric Binding Site of the Chemokine Receptor CXCR2” (Journal of Medicinal Chemistry, 2023) are described below.

“And” between values parts separate entries of the source, which are not always exact repeats. Identical values can stand only once.

The target of assay [1] is T1, CCR9 (Homo sapiens, UniProt P51686).
T1 construct: host or cells: HEK293T; membrane preparation
T1 sequence (P51686 1-369): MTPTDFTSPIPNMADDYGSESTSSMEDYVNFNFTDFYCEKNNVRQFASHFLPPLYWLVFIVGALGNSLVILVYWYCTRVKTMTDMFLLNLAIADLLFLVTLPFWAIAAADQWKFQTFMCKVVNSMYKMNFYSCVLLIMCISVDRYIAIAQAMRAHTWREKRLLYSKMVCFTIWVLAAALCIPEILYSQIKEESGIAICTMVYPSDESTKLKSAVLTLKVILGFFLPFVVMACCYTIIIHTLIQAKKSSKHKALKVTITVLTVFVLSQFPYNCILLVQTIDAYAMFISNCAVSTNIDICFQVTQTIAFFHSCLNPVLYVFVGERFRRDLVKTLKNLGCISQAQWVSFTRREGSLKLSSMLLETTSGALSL
The assay can be described thus: Membrane-based NanoBRET saturation assay, selectivity (CCR9_Nluc membranes). The procedure: For the establishment of our NanoBRET binding assay, we referred to a recently published protocol.[45] The fluorescent ligands (9a–c) were dissolved in DMSO (1 mM) and further diluted to varying concentrations in an assay buffer (50 mM Na2HPO4, 50 mM KH2PO4, pH 7.4, 1 mg/mL saponin, 5% FBS) and 5 μL of these dilutions were pipetted to a 384-well plate. To determine the total binding, 5 μL of the assay buffer was added to the corresponding wells, while 5 μL of a solution of 3 in the assay buffer (final assay concentration: 1 μM) was used to determine nonspecific binding. Then, 20 μL of the membrane preparations diluted in the assay buffer (2 μg total protein/well) were added and the plates were incubated for 90 min at 37 °C. Subsequently, 5 μL of a furimazine solution (Promega, Mannheim, Germany, final assay dilution: 1:5000) was added to each well (final assay volume: 35 μL) before measuring luminescence with a CLARIOstar microplate reader using 620/10 and 475/30 nm emission filters after 5 min of incubation in the dark. Bioluminescence resonance energy transfer (BRET) was determined as the ratio of acceptor fluorescence and donor luminescence. […] Specific binding signals were calculated as a difference of total and nonspecific binding. If required, netBRET values were calculated as the difference between total BRET values and the values obtained in the absence of a fluorescent ligand. […]
A general note: BRET reads energy transfer from a luciferase to a nearby fluorophore.

For assay [2], the target named is T2, CXCR2 (Homo sapiens, UniProt P25025).
T2 construct: Promega pNLF1-C (Nluc) #CXCR20TN00; host or cells: HEK293T, transient transfection (PEI)
T2 sequence (P25025 1-360): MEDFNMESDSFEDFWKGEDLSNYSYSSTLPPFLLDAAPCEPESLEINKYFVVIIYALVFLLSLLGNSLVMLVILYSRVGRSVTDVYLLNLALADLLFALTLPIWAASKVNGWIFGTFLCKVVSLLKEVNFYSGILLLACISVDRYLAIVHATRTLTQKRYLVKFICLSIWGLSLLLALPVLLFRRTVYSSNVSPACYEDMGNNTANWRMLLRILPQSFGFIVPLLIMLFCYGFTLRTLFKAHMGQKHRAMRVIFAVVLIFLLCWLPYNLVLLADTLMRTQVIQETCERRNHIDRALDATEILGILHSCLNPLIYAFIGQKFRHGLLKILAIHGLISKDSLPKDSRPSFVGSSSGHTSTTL
The assay can be described thus: Live cell NanoBRET association and dissociation kinetic assay. In kind it is binding. The note with it: 37 °C. The procedure:
HEK293T cells were transfected with the plasmid (5.5 μg) for CXCR2_Nluc using polyethylenimine (PEI) as the transfection reagent (PEI/DNA ratio 3:1). After 24 h at 37 °C and 5% CO2, the cells were detached with DMEM and transferred to a white F-bottom 384-well plate (10,000 cells/well), which was coated with 5 μL/well poly-D-lysine (0.1 mg/mL, dissolved in water), and incubated for further 24 h at 37 °C and 5% CO2. Subsequently, the cells were washed with phosphate-buffered saline (Gibco DPBS, with CaCl2 and MgCl2). 15 μL of the assay medium (Gibco DMEM/F12, 15 mM HEPES, no phenol red supplemented with 5% FBS) and 5 μL of vivazine (final assay dilution: 1:300 in the assay buffer) were added and the cells were incubated at 37 °C for 90 min. Then, 5 μL of the fluorescent ligand (9a), diluted to varying concentrations (final assay concentrations: 10–0.5 nM in the assay medium) was transferred to a 384-well plate. For the determination of nonspecific binding, we added a solution of the fluorescent ligand (9a) and a nonlabeled competitor dissolved in the assay medium (3, final assay concentration: 10 μM) instead. BRET ratios were measured with a CLARIOstar microplate reader using 620/10 and 475/30 nm emission filters over time. The obtained data were analyzed using the association kinetics (two or more conc. of hot ligand) algorithm in PRISM9.5 (GraphPad) to determine the association kinetics.
After running the association assay in cells for at least 133 min, 1 μL of an unlabeled competitor dissolved in the assay buffer (3, final assay concentration: 10 μM) was added. For control experiments, we added 1 μL of the assay medium instead of the competitor solution. BRET ratios were measured with a CLARIOstar microplate reader using 620/10 and 475/30 nm emission filters over time. Specific BRET ratios were calculated as a difference of total and nonspecific binding. The obtained data were analyzed using the dissociation one phase exponential decay algorithm in PRISM9.5 (GraphPad) to determine the dissociation kinetics.

Setting [3] is: cells, 9a 1 nM, single determinations.
Setting [4] is: cells, 9a 5 nM, single determinations.
The mark [5] stands for this setting: cells, 9a 10 nM, single determinations.
The mark [6] stands for this setting: live HEK293T cells expressing CXCR2_Nluc, mean.

With `Cc1ccc([C@H](Nc2c(Nc3cccc(C(=O)NCc4cn(CCOCCOCCOCCNC(=O)c5ccc(C(=O)[O-])c(-c6c7ccc(=[N+](C)C)cc-7oc7cc(N(C)C)ccc67)c5)nn4)c3O)c(=O)c2=O)C(C)(C)C)o1` [9a, (R)-4-((2-(2-(2-(2-(4-((3-((2-((2,2-Dimethyl-1-(5-methylfuran-2-yl)propyl)amino)-3,4-dioxocyclobut-1-en-1-yl)amino)-2-hydroxybenzamido)methyl)-1H-1,2,3-triazol-1-yl)ethoxy)ethoxy)ethoxy)ethyl)carbamoyl)-2-(6-(dimethylamino)-3-(dimethyliminio)-3H-xanthen-9-yl)benzoate], in assay [1], the “binding to CCR9” value is on record as “no significant binding”. In addition, in assay [2] (setting [3]), the koff was 8.88e-05 s⁻¹; the “koff [min-1]” value was 0.00837 min⁻¹ and 0.00621 min⁻¹ and 0.00861 min⁻¹; the “tr” value was 187.6 min and 119.5 min and 161.1 min and 116.1 min. Further, in assay [2] (setting [4]), the koff was 9.75e-05 s⁻¹; the “koff [min-1]” value was 0.0072 min⁻¹ and 0.00855 min⁻¹ and 0.00476 min⁻¹; the “tr” value is 210.2 min and 170.9 min and 138.9 min and 117.0 min. In assay [2] (setting [5]), the koff is 7.53e-05 s⁻¹; the “koff [min-1]” value was 0.00791 min⁻¹ and 0.00898 min⁻¹ and 0.00859 min⁻¹; the “tr” value was 221.0 min and 126.4 min and 111.4 min and 116.4 min. For the same compound, in assay [2] (live HEK293T cells expressing CXCR2_Nluc), the Kd amounted to 0.2 ± 0.02 nM. In assay [2] (setting [6]), this compound showed a koff of 0.000122 s⁻¹, a kon of 620000 M⁻¹ s⁻¹ and a residence time tr of 146 ± 10 min. Besides, the residence time in assay [2] (live HEK293T cells expressing CXCR2_Nluc, mean, read-out: residence time tr) worked out at 146 min.
